Experiments:
Test in all cases: Twenty-four hour optical density growth in BHI
Format in all cases: cell-based
Capnocytophaga sputigena = conditions: C sputigena
Procedure: (§1) The extent of growth of the tested bacteria in response to selected saccharides (myo-inositol, D-lactitol, D-turanose and N-acetyl-D-mannosamine) was investigated by setting up growth curves in a nutritionally rich medium (brain heart infusion broth (BHI), Oxoid), over 24 hours. Late exponential growth phase liquid cultures were prepared by transferring the respective bacterium from blood agar plates to BHI and overnight incubation at 37° C. in an anaerobic atmosphere for A. viscosus, V. parvula, F. nucleatum, P. gingivalis, P. intermedia, T. forsythia, A. naeslundii, and C. sputigena, and in a 5% CO2 environment for S. salivarius, S. sanguinis, S. mitis, A. actinomycetemcomitans, S. mutans, S. sobrinus and S. gordonii. Overnight cultures were transferred to BHI and adjusted to a concentration of 1×10^7 CFU/ml (colony forming units per ml) by measuring the optical density at 600 nm (OD600) (BioRad SmartSpec 3000). For each strain, 200 μl of the bacterial suspension was added to a 96-well plate containing 20 μl of the respective saccharides. Final concentrations of the saccharides were set to 5, 10, 20 and 25 μmol/ml. […] Plates were incubated as previously described.
(§2) For each combination of bacterium/saccharide, and for each of their respective controls (i.e. the particular bacterium in the nutritionally rich medium with no saccharide), the optical density was measured at 630 nm (OD630) at 0 h and 24 h (Thermo Scientific Multiskan Ascent). Additionally, the OD630 for combinations of bacterium/saccharides grown in a 5% CO2 environment were also measured every hour between 0 h and 9 h.
(§3) The experiment was carried out on three different days (thus providing 3 biological replicas) and on each day the experiment was carried out in quadruple (thus providing 4 technical replicas) for each combination of bacterium with saccharide and for each control. For each day and for each combination, the average (mean) of the values obtained (as detailed above) for the four technical replicas was calculated to provide a single value for each combination on each day. The values shown in Tables 5a,b to 6a,b, below, are the average (mean) of the three single values obtained for each combination of bacterium with saccharide.

Streptococcus mitis = conditions: S mitis
Procedure: as §1, §2, §3

Prevotella intermedia = conditions: P intermedia
Procedure: as §1, §2, §3

S. sanguinis = tested on: S. sanguinis
Procedure: as §1, §2, §3

Streptococcus mutans = conditions: S mutans
Procedure: as §1, §2, §3

Porphyromonas gingivalis = conditions: P gingivalis
Procedure: as §1, §2, §3

Tannerella forsythia = conditions: T forsythia
Procedure: as §1, §2, §3

Actinomyces naeslundii = conditions: A naeslundii
Procedure: as §1, §2, §3

Veillonella parvula = conditions: V parvula
Procedure: as §1, §2, §3

Fusobacterium nucleatum = conditions: F nucleatum
Procedure: as §1, §2, §3

Streptococcus gordonii = conditions: S gordonii
Procedure: as §1, §2, §3

Actinomyces viscosus = conditions: A viscosus
Procedure: as §1, §2, §3

Streptococcus salivarius = conditions: S salivarius
Procedure: as §1, §2, §3

Streptococcus sobrinus = conditions: S sobrinus
Procedure: as §1, §2, §3

[1] = tested on: Aggregatibacter actinomycetemcomitans; conditions: A actinomycetemcomitans
Procedure: as §1, §2, §3

In the case of O[C@H]1[C@H](O)[C@@H](O)[C@H](O)[C@@H](O)[C@H]1O [Myo-Inositol, (1R,2R,3S,4S,5R,6S)-cyclohexane-1,2,3,4,5,6-hexol], the “extent of growth: maximal OD630 over 24 hr divided by maximal OD of control (control = 1)” value (Capnocytophaga sputigena; 5 μmol/ml) was 0.8701, the “extent of growth: maximal OD630 over 24 hr divided by maximal OD of control (control = 1)” value (Capnocytophaga sputigena; 10 μmol/ml) was 0.8749 and the “extent of growth: maximal OD630 over 24 hr divided by maximal OD of control (control = 1)” value (Capnocytophaga sputigena; 20 μmol/ml) was 0.8545. The “extent of growth: maximal OD630 over 24 hr divided by maximal OD of control (control = 1)” value (Capnocytophaga sputigena; 25 μmol/ml) was 0.8789, the “extent of growth: maximal OD630 over 24 hr divided by maximal OD of control (control = 1)” value (Streptococcus mitis; 5 μmol/ml) was 0.9921 and the “extent of growth: maximal OD630 over 24 hr divided by maximal OD of control (control = 1)” value (Streptococcus mitis; 10 μmol/ml) was 0.9622. For the same compound, the “extent of growth: maximal OD630 over 24 hr divided by maximal OD of control (control = 1)” value (Streptococcus mitis; 20 μmol/ml) was 0.8975, the “extent of growth: maximal OD630 over 24 hr divided by maximal OD of control (control = 1)” value (Streptococcus mitis; 25 μmol/ml) was 0.8423 and the “extent of growth: maximal OD630 over 24 hr divided by maximal OD of control (control = 1)” value (Prevotella intermedia; 5 μmol/ml) was 0.9519. For the same compound, the “extent of growth: maximal OD630 over 24 hr divided by maximal OD of control (control = 1)” value (Prevotella intermedia; 10 μmol/ml) was 0.9564, the “extent of growth: maximal OD630 over 24 hr divided by maximal OD of control (control = 1)” value (Prevotella intermedia; 20 μmol/ml) was 0.9230 and the “extent of growth: maximal OD630 over 24 hr divided by maximal OD of control (control = 1)” value (Prevotella intermedia; 25 μmol/ml) was 0.9158. For the same compound, the “extent of growth: maximal OD630 over 24 hr divided by maximal OD of control (control = 1)” value (S. sanguinis; 5 μmol/ml) was 0.9429, the “extent of growth: maximal OD630 over 24 hr divided by maximal OD of control (control = 1)” value (S. sanguinis; 10 μmol/ml) was 0.9536 and the “extent of growth: maximal OD630 over 24 hr divided by maximal OD of control (control = 1)” value (S. sanguinis; 20 μmol/ml) was 0.8540. The “extent of growth: maximal OD630 over 24 hr divided by maximal OD of control (control = 1)” value (S. sanguinis; 25 μmol/ml) was 0.9077, the “extent of growth: maximal OD630 over 24 hr divided by maximal OD of control (control = 1)” value (Streptococcus mutans; 5 μmol/ml) was 1.1065 and the “extent of growth: maximal OD630 over 24 hr divided by maximal OD of control (control = 1)” value (Streptococcus mutans; 10 μmol/ml) was 1.0553. The “extent of growth: maximal OD630 over 24 hr divided by maximal OD of control (control = 1)” value (Streptococcus mutans; 20 μmol/ml) was 0.9645, the “extent of growth: maximal OD630 over 24 hr divided by maximal OD of control (control = 1)” value (Streptococcus mutans; 25 μmol/ml) was 0.9449 and the “extent of growth: maximal OD630 over 24 hr divided by maximal OD of control (control = 1)” value (Porphyromonas gingivalis; 5 μmol/ml) was 1.0200. For the same compound, the “extent of growth: maximal OD630 over 24 hr divided by maximal OD of control (control = 1)” value (Porphyromonas gingivalis; 10 μmol/ml) was 1.0126, the “extent of growth: maximal OD630 over 24 hr divided by maximal OD of control (control = 1)” value (Porphyromonas gingivalis; 20 μmol/ml) was 0.9758 and the “extent of growth: maximal OD630 over 24 hr divided by maximal OD of control (control = 1)” value (Porphyromonas gingivalis; 25 μmol/ml) was 0.9855. For the same compound, the “extent of growth: maximal OD630 over 24 hr divided by maximal OD of control (control = 1)” value (Tannerella forsythia; 5 μmol/ml) was 0.9323, the “extent of growth: maximal OD630 over 24 hr divided by maximal OD of control (control = 1)” value (Tannerella forsythia; 10 μmol/ml) was 0.9359 and the “extent of growth: maximal OD630 over 24 hr divided by maximal OD of control (control = 1)” value (Tannerella forsythia; 20 μmol/ml) was 0.9286. For the same compound, the “extent of growth: maximal OD630 over 24 hr divided by maximal OD of control (control = 1)” value (Tannerella forsythia; 25 μmol/ml) was 0.9460, the “extent of growth: maximal OD630 over 24 hr divided by maximal OD of control (control = 1)” value (Actinomyces naeslundii; 5 μmol/ml) was 1.0172 and the “extent of growth: maximal OD630 over 24 hr divided by maximal OD of control (control = 1)” value (Actinomyces naeslundii; 10 μmol/ml) was 1.0190. For the same compound, the “extent of growth: maximal OD630 over 24 hr divided by maximal OD of control (control = 1)” value (Actinomyces naeslundii; 20 μmol/ml) was 1.0051, the “extent of growth: maximal OD630 over 24 hr divided by maximal OD of control (control = 1)” value (Actinomyces naeslundii; 25 μmol/ml) was 1.0000 and the “extent of growth: maximal OD630 over 24 hr divided by maximal OD of control (control = 1)” value (Veillonella parvula; 5 μmol/ml) was 0.9050. For the same compound, the “extent of growth: maximal OD630 over 24 hr divided by maximal OD of control (control = 1)” value (Veillonella parvula; 10 μmol/ml) was 0.9049, the “extent of growth: maximal OD630 over 24 hr divided by maximal OD of control (control = 1)” value (Veillonella parvula; 20 μmol/ml) was 0.8987 and the “extent of growth: maximal OD630 over 24 hr divided by maximal OD of control (control = 1)” value (Veillonella parvula; 25 μmol/ml) was 0.8933. For the same compound, the “extent of growth: maximal OD630 over 24 hr divided by maximal OD of control (control = 1)” value (Fusobacterium nucleatum; 5 μmol/ml) was 0.9430, the “extent of growth: maximal OD630 over 24 hr divided by maximal OD of control (control = 1)” value (Fusobacterium nucleatum; 10 μmol/ml) was 0.9489 and the “extent of growth: maximal OD630 over 24 hr divided by maximal OD of control (control = 1)” value (Fusobacterium nucleatum; 20 μmol/ml) was 0.9512. The “extent of growth: maximal OD630 over 24 hr divided by maximal OD of control (control = 1)” value (Fusobacterium nucleatum; 25 μmol/ml) was 0.9518, the “extent of growth: maximal OD630 over 24 hr divided by maximal OD of control (control = 1)” value (Streptococcus gordonii; 5 μmol/ml) was 0.9888 and the “extent of growth: maximal OD630 over 24 hr divided by maximal OD of control (control = 1)” value (Streptococcus gordonii; 10 μmol/ml) was 0.9732. The “extent of growth: maximal OD630 over 24 hr divided by maximal OD of control (control = 1)” value (Streptococcus gordonii; 20 μmol/ml) was 0.9751, the “extent of growth: maximal OD630 over 24 hr divided by maximal OD of control (control = 1)” value (Streptococcus gordonii; 25 μmol/ml) was 0.9954 and the “extent of growth: maximal OD630 over 24 hr divided by maximal OD of control (control = 1)” value (Actinomyces viscosus; 5 μmol/ml) was 0.8442. For the same compound, the “extent of growth: maximal OD630 over 24 hr divided by maximal OD of control (control = 1)” value (Actinomyces viscosus; 10 μmol/ml) was 0.8574, the “extent of growth: maximal OD630 over 24 hr divided by maximal OD of control (control = 1)” value (Actinomyces viscosus; 20 μmol/ml) was 0.8079 and the “extent of growth: maximal OD630 over 24 hr divided by maximal OD of control (control = 1)” value (Actinomyces viscosus; 25 μmol/ml) was 0.7647. For the same compound, the “extent of growth: maximal OD630 over 24 hr divided by maximal OD of control (control = 1)” value (Streptococcus salivarius; 5 μmol/ml) was 0.9359, the “extent of growth: maximal OD630 over 24 hr divided by maximal OD of control (control = 1)” value (Streptococcus salivarius; 10 μmol/ml) was 0.9395 and the “extent of growth: maximal OD630 over 24 hr divided by maximal OD of control (control = 1)” value (Streptococcus salivarius; 20 μmol/ml) was 0.9136. The “extent of growth: maximal OD630 over 24 hr divided by maximal OD of control (control = 1)” value (Streptococcus salivarius; 25 μmol/ml) was 0.8905, the “extent of growth: maximal OD630 over 24 hr divided by maximal OD of control (control = 1)” value (Streptococcus sobrinus; 5 μmol/ml) was 0.9301 and the “extent of growth: maximal OD630 over 24 hr divided by maximal OD of control (control = 1)” value (Streptococcus sobrinus; 10 μmol/ml) was 0.9360. The “extent of growth: maximal OD630 over 24 hr divided by maximal OD of control (control = 1)” value (Streptococcus sobrinus; 20 μmol/ml) was 0.9087, the “extent of growth: maximal OD630 over 24 hr divided by maximal OD of control (control = 1)” value (Streptococcus sobrinus; 25 μmol/ml) was 0.9224 and the “extent of growth: maximal OD630 over 24 hr divided by maximal OD of control (control = 1)” value ([1]; 5 μmol/ml) was 0.6977. The “extent of growth: maximal OD630 over 24 hr divided by maximal OD of control (control = 1)” value ([1]; 10 μmol/ml) was 0.7107, the “extent of growth: maximal OD630 over 24 hr divided by maximal OD of control (control = 1)” value ([1]; 20 μmol/ml) was 0.7396 and the “extent of growth: maximal OD630 over 24 hr divided by maximal OD of control (control = 1)” value ([1]; 25 μmol/ml) was 0.7361.

Source: patent publication US11419806B2, “Prebiotic oral care methods using a saccharide” (Colgate-Palmolive Company, priority 2013, dated 2022)
